This note sets out measurements from US20230103514A1, “A TOPICAL COMPOSITION COMPRISING AN EXTRACT OF COMBINED HERBS COMPRISING LONGANAE ARILLUS FOR THE SKIN REGENERATION AND THE TREATMENT OR ALLEVIATION OF SKIN WOUND AND THE USE THEREOF” (MEDIHELPLINE CO., LTD, priority 2020, published 2023).

One experiment relates to TSLP. Kind of experiment: Inhibitory effect on cytokine expression (RT-PCR, TNF alpha-induced HaCaT cells): TSLP. It counts as cell-based, human. The settings on record: TNFα 50 ng/ml, extract 1 μg/ml, Dex 200 nM, non-induced = 1. The procedure: (§1) In order to determine the anti-inflammatory activity of inventive extract, following inhibition test of cytokine expression using HaCaT cell was performed according to the procedure disclosed in the literature (Jeong et al., 2019, J. Invest. Dermatol., May; 139 (5): pp1098-1109). ?
(§2) HaCaT cell (human epithelial keratinocyte cell, 300493, CLS) was inoculated into DMEM medium containing 10% Fetal bovine serum, 100 units/ml of penicillin, 100 μg/ml of streptomycin (D6429, Sigma-Aldrich Co. Ltd) and was incubated in the incubator (HERA cell 150i, Thermo Fisher Scientific Co. Ltd.) maintaining optimum humidity (85-95%) and 5% CO2 atmosphere.
(§3) For performing gene expression test, the incubated cells were transferred to 12 wells and 50 ng/ml of TNF alpha (RC214-12, Biobasic Co. Ltd) was treated therewith for 1 hour to induce inflammatory response.
(§4) 1 hour after inducing the inflammation, 1 μg/ml of inventive extract prepared in Examples was treated with identical medium and subjected to incubation for 1 hour. After the incubation, RNA (FATRR-001, Favorgen) was extracted from the cell and cDNA was synthesized from the RNA using by cDNA synthesis kit (RRO36A, TAKARA). […]

The test system of the next experiment is IL-1β. As to the kind of experiment: Inhibitory effect on cytokine expression (RT-PCR, TNF alpha-induced HaCaT cells): IL-1β. It counts as cell-based, human. The following applies: TNFα 50 ng/ml, extract 1 μg/ml, Dex 200 nM, non-induced = 1. On the procedure:
as §1, §2, §3, §4

Structures are written as SMILES.

As for `C[C@@H]1C[C@H]2[C@@H]3CCC4=CC(=O)C=C[C@]4(C)[C@@]3(F)[C@@H](O)C[C@]2(C)[C@@]1(O)C(=O)CO` [Dex, Dexamethasone], the “TSLP expression (quantitative RT-PCR)” value with TSLP is 52.49. Besides, in the experiment on IL-1β, the “IL-1β expression (quantitative RT-PCR)” value is 1.081.
